Reference: patent publication US9750817B2, “Amphotericin B derivatives” (priority 2015, dated 2017)
Converted amounts (≈) assume the structure as drawn.

How the values were obtained:
C. albicans = experiment: Fungal burden in kidneys of infected mice; type: in vivo; details: AMB 1 mg/kg; Compound 6 1.75, 3.5 and 7 mg/kg
Method: Reference is made to FIGS. 6A-E. ICR female mice were inoculated with C. albicans in groups of 3 as described in example 6B and were killed 48 hours later for assessment of fungal burden. One kidney and the spleen were removed aseptically from each animal and homogenized in 1 mL of sterile normal saline. Serial 10-fold dilutions of the homogenates were spread on YAG plates, and colony-forming units (CFU)/organ was determined from the colony count after 24 hours incubation at 37° C. All mouse experiments were performed in duplicates.
At necropsy, fungal burden in mouse tissues was evaluated. […] FIGS. 6C-E show micrographs of mice treated with Compound 6 at dosages of 1.75 mg/kg, 3.5 mg/kg and 7 mg/kg, respectively.

C. albicans CBS 562 = experiment: Experimental systemic murine candidiasis, survival; type: in vivo, mice; details: four daily injections, 24 days
Method: Reference is Made to FIG. 5. Efficacy of PAD-AMB was Tested on Naïve 6 Week Old female ICR mice (n=20). Experimental systemic murine candidiasis was induced by intravenous inoculation of C. albicans CBS 562 into the tail vein using an inoculum of 5×10^4 cells in 0.2 ml per mouse. Fungal count was determined by microscopic counts on a haemocytometer. Treatment began 24 h after inoculation of C. albicans and consisted of four consecutive daily injections of Compound 6 at a range of 1.75-8.75 mg/kg/day relative to mouse body weight. Control groups included infected untreated mice and mice treated with AMB (1 mg/kg/day body weight). Survival and mouse body weight were monitored for 24 days. Survival for the various mouse groups is shown graphically in FIG. 5.

human erythrocytes = experiment: In-vitro toxicity (hemolysis) study; type: cell-based; details: 6 μg/ml; for toxicity to erythrocytes: assay conditions of FIG. 4B
Method: Reference is made to FIG. 4B. Fresh human erythrocytes were diluted 1:100 in PBS, and incubated in an Eppendorf tube while rotating slowly in the presence of 6 μg/ml of each of compound 4 and compound 6. Amphotericin B was used as positive control. Sterile double distilled water served as a control for 100% hemolysis. After 1, 3, 5 and 21 h, 20 μl of each test tube were removed and diluted in 180 μl PBS. Samples were centrifuged for 10 minutes at 1200 RPM and the optical density of the supernatant was measured at 425 nm.

C. albicans (CBS562) = experiment: MIC of compound 6, AMB and FMOC-6; type: cell-based, Candida albicans
Method: (§1) Efficacy was evaluated by measuring minimum inhibitory concentration (MIC) and minimum fungicidal concentration (MFC) values for fungal isolates. Testing of isolates was performed according to the Clinical & Laboratory Standards Institute (CLSI) method. (CLSI. 2008. M27-A3 Reference method for broth dilution antifungal susceptibility testing of yeasts; Approved Standard—3rd edition. Clinical and Laboratory Standards Institute, Wayne). RPMI MOPS media was used throughout the experiment as growth and dilution media. Spores and yeast cells were harvested in 0.05% Tween from 24-48 h and cultures were grown in rich yeast extract-agar-glucose (YAG) medium (composed of: 0.5% w/v yeast extract, 1% w/v glucose, 10 millimolar (mM) MgCl2, supplemented with 0.1% v/v trace elements solution, and 0.2% v/v vitamin mix). The spores and the yeast cells were counted and diluted to a final concentration of 2.5×10^4 per ml. A stock solution of 5 mg/ml was prepared in dimethylsulfoxide for free AMB. Compounds 4 and 6 were prepared in sterile saline. Double dilutions of each drug were performed in 100 μL volume of RPMI-MOPS in 96 well plates beginning with a final concentration of 32 micrograms (μg)/well of each drug to 0.06 μg/well. 2500 spores or yeast cells were added to each well. Results were recorded 48 h post incubation at 37° C. […] The MFC was defined as the lowest drug concentration that yielded three or fewer colonies (i.e. 99% of the inoculum was killed).
In addition, the amine protected equivalent of compound 6 in which the amine of compound 6 was protected with an FMOC group was tested (designated FMOC-6) to determine MIC versus AMB and versus compound 6 against A. fumigatus (Af 293) and C. albicans (CBS562).

[1] = tested on: mouse embryonic fibroblasts (MEFs); experiment: MTT viability assay in mouse embryonic fibroblasts; type: cell-based
Method: Reference is made to FIG. 4C. Mouse embryonic fibroblasts were used in this example. 1×10^4 mouse embryonic fibroblasts (MEFs) per well were seeded in 96-well plates and incubated at 37° C. After 24 h the media was replaced with 100 μl culture medium containing serial dilutions of AMB, compounds 4 or 6, or left untreated. After 24 h, the media was replaced by fresh media (100 μl per well) containing 1 mg/ml MTT (3-(4,5-Dimethylthiazol-2-yl)-2,5-Diphenyltetrazolium Bromide, ((Biological Industries, Israel)) reagent and the cells were incubated for an additional 3 h at 37° C. MTT-formazan crystals were dissolved by the addition of 100 μl per well of extraction solution (20% SDS, 50% N,N-dimethyl formamide (DMF), pH=4.7) and incubation for 16 h at 37° C. Absorbance at 570 nm was recorded on a Biotek Synergy HT plate reader.
The results were expressed as the percentage of living cells relative to the untreated control and are depicted in FIG. 4C. The inhibition concentration (IC50) value is the concentration of the compound which inhibited cell growth by 50%.

Rhizopus oryzae = experiment: MIC/MFC broth dilution (CLSI), clinical isolates; type: cell-based; details: 1 isolate, 48 h at 37° C.
Method: Isolates of Aspergillus fumigatus, Aspergillus flavus, Aspergillus terreus Aspergillus niger, Rhizopus oryzae, Candida albicans and Candida krusei were isolated from patients in Israeli hospitals and used for in vitro efficacy studies.
as §1

[2] = Stability (hydrolysis) in phosphate buffered saline; type: physicochemical
[3] = Solubility in 0.9% saline after vortex, sonication and centrifuge; type: physicochemical

Structure (SMILES) | fungal hyphae in kidney sections (Fontana-Masson silver staining) (C. albicans) | mice rescued (survival) (C. albicans CBS 562; 1 mg/kg/day) | hemolysis (human erythrocytes; after 3 h of agitation) | toxicity to erythrocytes (human erythrocytes) | MIC (C. albicans (CBS562)) | IC50 (concentration which inhibited cell growth by 50%) ([1]; 24 h exposure, MTT) | MFC (Rhizopus oryzae) | MIC (Rhizopus oryzae) | hydrolysis after 4 hours ([2]; 4 hours) | level of hydrolysis after 24 hours ([2]; 24 hours) | mice rescued (survival) (C. albicans CBS 562; 3.5 mg/kg) | mice rescued (survival) (C. albicans CBS 562; 7 mg/kg) | hemolytic activity (human erythrocytes; after 3 h of agitation) | times less toxic than AMB ([1]; from IC50) | increased solubility relative to corresponding non-PEG-conjugated AMB compounds [3]
C[C@@H]1[C@H](O)[C@@H](C)/C=C/C=C/C=C/C=C/C=C/C=C/C=C/[C@H](O[C@@H]2O[C@H](C)[C@@H](O)[C@H](N)[C@@H]2O)C[C@@H]2O[C@](O)(C[C@@H](O)C[C@@H](O)[C@H](O)CC[C@@H](O)C[C@@H](O)CC(=O)O[C@H]1C)C[C@H](O)[C@H]2C(=O)O [AMB, Amphotericin B] | barely detectable | 10 of the 12 | 76% | very toxic | 0.25 µg/mL | 6.6 µg/mL | 0.25 µg/mL (≈ 0.271 µM) | 0.25 µg/mL (≈ 0.271 µM) |  |  |  |  |  |  | 
COC(=O)C1C(O)CC2(O)CC(O)CC(O)C(O)CCC(O)CC(O)CC(=O)OC(C)C(C)C(O)C(C)C=CC=CC=CC=CC=CC=CC=CC(OC3OC(C)C(O)C(NC(=O)CCOCCOCCOCCOCCOCCOCCOCCOCCN)C3O)CC1O2 (centres unmarked) [Compound 6, amphotericin B amide, methyl ester-PEG(8)-amine] | barely detectable |  |  | negligible toxicity | 2 µg/mL |  | 4 µg/mL (≈ 2.94 µM) | 4 µg/mL (≈ 2.94 µM) | no hydrolysis could be observed | 0.8% | the same level of efficacy | rescued all of the mice | only slightly hemolytic | at least 600 times | greater than 700 fold
